Results from patent publication US11000033B2, “Ketone or oxime compound, and herbicide” (NISSAN CHEMICAL CORPORATION, priority 2014, dated 2021).

Assays:
Format in all cases: in vivo
[1] = system: Echinochloa oryzacola Vasing.; assay: Test Example 1: herbicidal activity, application before weed generation in submerged conditions (symbol A); settings: application herbicide amount 320 g/ha
Summary of the method: (§1)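 Application before weed emergence: an aqueous dilution of the emulsion formulation was poured onto the surface of 4 cm-deep floodwater on the day of sowing. Effect was judged after 3 weeks (greenhouse, 25–30 °C).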

[2] = system: Cyperus difformis; assay: Test Example 3: herbicidal effect by foliage application, Wagner pot (symbol E); settings: application herbicide amount 320 g/ha
Summary of the method: (§2)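 In a shallow-flooded alluvial soil system held at 25–30 °C, plants including rice grew for 14 days and were then sprayed over the foliage with emulsion diluted to a fixed herbicide amount. Visual rating followed at 3 weeks.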

[3] = system: rapeseed; assay: Test Example 5: effect on crop by foliage application, plastic box (symbol g); settings: 320 g/ha, 3 weeks after application
Summary of the method: (§3)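 Foliage-application test plants come from spot sowing in sterilized diluvial soil under a soil layer of about 1.5 cm, grown at 25° C. to 30° C. in a greenhouse.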

[4] = system: Stellaria media; assay: Test Example 5: herbicidal effect by foliage application, plastic box (symbol P); settings: 320 g/ha, 3 weeks after application
Summary of the method: (§4)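 Leaf-applied emulsion, water-diluted to a preset herbicide dose, on two-week-old seedlings raised in a 25° C. to 30° C. greenhouse; injury rated at 3 weeks using earlier criteria.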

[5] = system: Alopecurus myosuroides; assay: Test Example 4: herbicidal effect by soil treatment (symbol J); settings: application herbicide amount 320 g/ha
Summary of the method: (§5)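 Seeds were sown in sterilized diluvial soil, covered with about 1.5 cm of soil, and the soil surface was sprayed with a water-diluted emulsion of the compound at a predetermined rate. Plants grew in a greenhouse at 25° C. to 30° C.; effects were scored visually 3 weeks after application.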

[6] = system: Amaranthus retroflexus; assay: Test Example 5: herbicidal effect by foliage application, plastic box (symbol N); settings: 320 g/ha, 3 weeks after application
Summary of the method: as §4

[7] = system: Alopecurus myosuroides; assay: Test Example 5: herbicidal effect by foliage application, plastic box (symbol J); settings: 320 g/ha, 3 weeks after application
Summary of the method: as §4

[8] = system: Setaria viridis; assay: Test Example 4: herbicidal effect by soil treatment (symbol G); settings: application herbicide amount 320 g/ha
Summary of the method: as §5

[9] = system: Galium spurium; assay: Test Example 4: herbicidal effect by soil treatment (symbol Q); settings: application herbicide amount 320 g/ha
Summary of the method: as §5

[10] = system: Scirpus juncoides; assay: Test Example 1: herbicidal activity, application before weed generation in submerged conditions (symbol B); settings: application herbicide amount 320 g/ha
Summary of the method: as §1

[11] = system: wheat; assay: Test Example 4: effect on crop by soil treatment (symbol e); settings: application herbicide amount 320 g/ha
Summary of the method: (§6)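 Plants grew in a 25° C. to 30° C. greenhouse after spot-sowing of seeds, including beet, rapeseed, wheat and rice, into sterilized diluvial soil under roughly 1.5 cm of cover soil.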

[12] = system: Galium spurium; assay: Test Example 5: herbicidal effect by foliage application, plastic box (symbol Q); settings: 320 g/ha, 3 weeks after application
Summary of the method: as §4

[13] = system: Apera spica-venti; assay: Test Example 4: herbicidal effect by soil treatment (symbol L); settings: application herbicide amount 320 g/ha
Summary of the method: as §5

[14] = system: Digitaria ciliaris; assay: Test Example 5: herbicidal effect by foliage application, plastic box (symbol F); settings: 320 g/ha, 3 weeks after application
Summary of the method: as §4

[15] = system: Abutilon theophrasti; assay: Test Example 5: herbicidal effect by foliage application, plastic box (symbol M); settings: 320 g/ha, 3 weeks after application
Summary of the method: as §4

[16] = system: beet; assay: Test Example 5: effect on crop by foliage application, plastic box (symbol f); settings: 320 g/ha, 3 weeks after application
Summary of the method: as §3

[17] = system: Echinochloa crus-galli var. crus-galli; assay: Test Example 3: herbicidal effect by foliage application, Wagner pot (symbol H); settings: application herbicide amount 320 g/ha
Summary of the method: as §2

[18] = system: Apera spica-venti; assay: Test Example 5: herbicidal effect by foliage application, plastic box (symbol L); settings: 320 g/ha, 3 weeks after application
Summary of the method: as §4

[19] = system: rapeseed; assay: Test Example 4: effect on crop by soil treatment (symbol g); settings: application herbicide amount 320 g/ha
Summary of the method: as §6

Compound	Herbicidal effect grade, A: Echinochloa oryzacola Vasing. [1]	herbicidal effect on E, grade 0-5 [2]	g: rapeseed, effect on crop (criteria of Test Example 1) [3]	P: Stellaria media, herbicidal effect (criteria of Test Example 1) [4]	Herbicidal effect grade, J: Alopecurus myosuroides [5]	N: Amaranthus retroflexus, herbicidal effect (criteria of Test Example 1) [6]	J: Alopecurus myosuroides, herbicidal effect (criteria of Test Example 1) [7]	Herbicidal effect grade, G: Setaria viridis [8]	Herbicidal effect grade, Q: Galium spurium [9]	Herbicidal effect grade, B: Scirpus juncoides [10]	Effect on crop grade, e: wheat [11]	Q: Galium spurium, herbicidal effect (criteria of Test Example 1) [12]	Herbicidal effect grade, L: Apera spica-venti [13]	F: Digitaria ciliaris, herbicidal effect (criteria of Test Example 1) [14]	M: Abutilon theophrasti, herbicidal effect (criteria of Test Example 1) [15]	f: beet, effect on crop (criteria of Test Example 1) [16]	herbicidal effect on H (Echinochloa crus-galli var. crus-galli), grade 0-5 [17]	L: Apera spica-venti, herbicidal effect (criteria of Test Example 1) [18]	Effect on crop grade, g: rapeseed [19]
COc1cc(C)c(C2=C(O)CC(CC(C)=O)C2=O)c(C)c1 (centres unmarked) [7-020]	2 (Herbicidal ratio of 20% or higher and lower than 40%)	3 (Herbicidal ratio of 40% or higher and lower than 70%)	2 (Herbicidal ratio of 20% or higher and lower than 40%)	0 (Herbicidal ratio of 5% or lower (almost no effect))	3 (Herbicidal ratio of 40% or higher and lower than 70%)	0 (Herbicidal ratio of 5% or lower (almost no effect))	4 (Herbicidal ratio of 70% or higher and lower than 90%)	2 (Herbicidal ratio of 20% or higher and lower than 40%)	0 (Herbicidal ratio of 5% or lower (almost no effect))	0 (Herbicidal ratio of 5% or lower (almost no effect))	0 (Herbicidal ratio of 5% or lower (almost no effect))	0 (Herbicidal ratio of 5% or lower (almost no effect))	0 (Herbicidal ratio of 5% or lower (almost no effect))	5 (Herbicidal ratio of 90% or more (almost completely withered))	0 (Herbicidal ratio of 5% or lower (almost no effect))	0 (Herbicidal ratio of 5% or lower (almost no effect))	4 (Herbicidal ratio of 70% or higher and lower than 90%)	3 (Herbicidal ratio of 40% or higher and lower than 70%)	0 (Herbicidal ratio of 5% or lower (almost no effect))
CC(=O)CC1CC(O)=C(c2c(C)cc(OCc3ccccc3)cc2C)C1=O (centres unmarked) [7-018]	2 (Herbicidal ratio of 20% or higher and lower than 40%)	3 (Herbicidal ratio of 40% or higher and lower than 70%)	0 (Herbicidal ratio of 5% or lower (almost no effect))	0 (Herbicidal ratio of 5% or lower (almost no effect))	0 (Herbicidal ratio of 5% or lower (almost no effect))	0 (Herbicidal ratio of 5% or lower (almost no effect))	0 (Herbicidal ratio of 5% or lower (almost no effect))	1 (Herbicidal ratio of 5% or higher and lower than 20%)	0 (Herbicidal ratio of 5% or lower (almost no effect))	0 (Herbicidal ratio of 5% or lower (almost no effect))	0 (Herbicidal ratio of 5% or lower (almost no effect))	0 (Herbicidal ratio of 5% or lower (almost no effect))	0 (Herbicidal ratio of 5% or lower (almost no effect))	5 (Herbicidal ratio of 90% or more (almost completely withered))	0 (Herbicidal ratio of 5% or lower (almost no effect))	0 (Herbicidal ratio of 5% or lower (almost no effect))	3 (Herbicidal ratio of 40% or higher and lower than 70%)	2 (Herbicidal ratio of 20% or higher and lower than 40%)	0 (Herbicidal ratio of 5% or lower (almost no effect))
